In patent US11098052B2, “4-azapodophylotoxins compounds” (Arizona Board of Regents on behalf of Arizona State …, priority 2016, dated 2021):
Values after ≈ are worked out from the molar mass of the structure shown.

Assays:
[1] = system: P388 murine lymphocytic leukemia cell line; settings: footnote c: See Ref 25; cited from earlier work
[2] = system: P388 murine lymphocytic leukemia cell line; test: Murine P388 lymphocytic leukemia inhibitory activity; type: cell-based; settings: Mus musculus, P388, read-out: Murine P388 Lymphocytic Leukemia Inhibitory Activity (ED50)
SF-268 (CNS) = test: Human cancer cell growth inhibition, sulforhodamine B assay, SF-268; type: cell-based; settings: SF-268, 48 h, read-out: Growth Inhibition of Human Cancer Cell Lines (GI50), SF-268
Procedure: (§1) Cancer Cell Line Procedures. The human cancer cell growth inhibition data were determined using the standard sulforhodamine B assay of the US National Cancer Institute as previously described.^35 In short, cells in a 5% fetal bovine serum/RPMI1640 medium were inoculated in 96-well plates and incubated for 24 h. Next, serial dilutions of the samples were added. After 48 h, the plates were fixed with trichloroacetic acid, stained with sulforhodamine B, and read with an automated microplate reader. A growth inhibition of 50% (GI50 or the drug concentration causing a 50% reduction in the net protein increase) was determined from optical density data employing Immunosoft® software.

DU-145 (prostate) = test: Human cancer cell growth inhibition, sulforhodamine B assay, DU-145; type: cell-based; settings: DU-145, 48 h, read-out: Growth Inhibition of Human Cancer Cell Lines (GI50), DU-145
Procedure: as §1

KM20L2 (colon) = test: Human cancer cell growth inhibition, sulforhodamine B assay, KM20L2; type: cell-based; settings: KM-20L2, 48 h, read-out: Growth Inhibition of Human Cancer Cell Lines (GI50), KM20L2
Procedure: as §1

NCI-H460 (lung) = test: Human cancer cell growth inhibition, sulforhodamine B assay, NCI-H460; type: cell-based; settings: NCI-H460, 48 h, read-out: Growth Inhibition of Human Cancer Cell Lines (GI50), NCI-H460
Procedure: as §1

BXPC-3 (pancreas) = test: Human cancer cell growth inhibition, sulforhodamine B assay, BXPC-3; type: cell-based; settings: BXPC-3, 48 h, read-out: Growth Inhibition of Human Cancer Cell Lines (GI50), BXPC-3
Procedure: as §1

MCF-7 (breast) = test: Human cancer cell growth inhibition, sulforhodamine B assay, MCF-7; type: cell-based; settings: MCF7, 48 h, read-out: Growth Inhibition of Human Cancer Cell Lines (GI50), MCF-7
Procedure: as §1

Row | SMILES | melting point | Murine P388 Lymphocytic Leukemia Inhibitory Activity (ED50) [1] [µg/mL] | IC50 [2] [µg/mL] | GI50 (SF-268 (CNS)) [µg/mL] | GI50 (DU-145 (prostate)) [µg/mL] | GI50 (KM20L2 (colon)) [µg/mL] | GI50 (NCI-H460 (lung)) [µg/mL] | GI50 (BXPC-3 (pancreas)) [µg/mL] | GI50 (MCF-7 (breast)) [µg/mL]
1 | COc1cc(C2C3=C(COC3=O)Nc3cc4c(cc32)OCO4)cc(OC)c1OC (stereo not shown) [Compound 15e, 6,7-Methylenedioxy-9-(3,4,5-trimethoxyphenyl)-4,9-dihydro-3H-furo[3,4-b]quinolin-1-one] | 273 to 275 °C | 0.0018 | – | – | – | – | – | – | –
2 | COc1cc(C2C3=C(COC3=O)N(CCc3ccc(F)cc3)c3cc4c(cc32)OCO4)cc(OC)c1OC (stereo not shown) [Compound 25, 6,7-Methylenedioxy-4-[2-(4-fluorophenyl)-ethyl]-9-(3,4,5-trimethoxyphenyl)-4,9-dihydro-3H-furo[3,4-b]quinolin-1-one] | 174 to 177 °C | – | 3.3 (≈ 6.35 µM) | 0.52 (≈ 1 µM) | 2.5 (≈ 4.81 µM) | 2.4 (≈ 4.62 µM) | 2.3 (≈ 4.43 µM) | 0.9 (≈ 1.73 µM) | 0.42 (≈ 0.808 µM)
3 | COc1cc(C2C3=C(COC3=O)N(CCc3ccc(Cl)cc3)c3cc4c(cc32)OCO4)cc(OC)c1OC (stereo not shown) [Compound 26, 6,7-Methylenedioxy-4-[2-(4-chlorophenyl)-ethyl]-9-(3,4,5-trimethoxyphenyl)-4,9-dihydro-3H-furo[3,4-b]quinolin-1-one] | 170 to 173 °C | – | 2.6 (≈ 4.85 µM) | 0.35 (≈ 0.653 µM) | 0.31 (≈ 0.578 µM) | 0.37 (≈ 0.69 µM) | 0.3 (≈ 0.56 µM) | 0.54 (≈ 1.01 µM) | 0.34 (≈ 0.634 µM)
4 | COc1cc(C2C3=C(COC3=O)N(CCc3ccc([N+](=O)[O-])cc3)c3cc4c(cc32)OCO4)cc(OC)c1OC (stereo not shown) [Compound 27, 6,7-Methylenedioxy-4-[2-(4-nitrophenyl)-ethyl]-9-(3,4,5-trimethoxyphenyl)-4,9-dihydro-3H-furo[3,4-b]quinolin-1-one] | 188 to 190 °C | – | 34.8 (≈ 63.7 µM) | 0.2 (≈ 0.366 µM) | 0.3 (≈ 0.549 µM) | 0.26 (≈ 0.476 µM) | 0.3 (≈ 0.549 µM) | 0.39 (≈ 0.714 µM) | 0.08 (≈ 0.146 µM)
5 | COc1cc(C2C3=C(COC3=O)N(CCCn3ccnc3)c3cc4c(cc32)OCO4)cc(OC)c1OC (stereo not shown) [Compound 28, 6,7-Methylenedioxy-4-(3-imidazol-1-yl-propyl)-9-(3,4,5-trimethoxyphenyl)-4,9-dihydro-3H-furo[3,4-b]quinolin-1-one] | 206 °C (dec.) | – | 2 (≈ 3.96 µM) | 2.5 (≈ 4.95 µM) | 2.1 (≈ 4.15 µM) | 2.2 (≈ 4.35 µM) | 3 (≈ 5.93 µM) | 2.9 (≈ 5.74 µM) | 0.64 (≈ 1.27 µM)
